Test results: ChEMBL document CHEMBL4052759, “Discovery of DS79182026: A potent orally active hepcidin production inhibitor” (Bioorg Med Chem Lett, 2017)
One block for each compound: values may come before it.

Assays:
[1] = target: AMP-activated protein kinase, AMPK (Homo sapiens) (UniProt P54646+O43741+P54619+Q9UGJ0+Q9Y478+Q13131+Q9UGI9); experiment: Inhibition of AMPK (unknown origin) at 0.078 uM relative to control
[2] = Oral bioavailability in C57BL/6J mouse at 30 mg/kg by LC-MS/MS analysis; type: ADME, organism-based; settings: in vivo
[3] = target: Dual specificity tyrosine-phosphorylation-regulated kinase 1A (Homo sapiens) (UniProt Q13627); experiment: Inhibition of DYRK1a (unknown origin) at 0.49 uM relative to control
[4] = target: Ribosomal protein S6 kinase alpha-5 (Homo sapiens) (UniProt O75582); experiment: Inhibition of MSK1 (unknown origin) at 0.49 uM relative to control
[5] = test system: Tyrosine-protein kinase ABL1 (Homo sapiens), P00519 [T315I]; experiment: Inhibition of Abl T315I mutant (unknown origin) at 0.49 uM relative to control
[6] = target: Homeodomain-interacting protein kinase 3 (Homo sapiens) (UniProt Q9H422); experiment: Inhibition of HIPK3 (unknown origin) at 0.49 uM relative to control
[7] = target: Serine/threonine-protein kinase BRSK2 (Homo sapiens) (UniProt Q8IWQ3); experiment: Inhibition of BRSK2 (unknown origin) at 0.49 uM relative to control
[8] = target: Casein kinase I isoform epsilon (Homo sapiens) (UniProt P49674); experiment: Inhibition of CK1-epsilon (unknown origin) at 0.49 uM relative to control
[9] = target: Phosphorylase b kinase gamma catalytic chain, liver/testis isoform (Homo sapiens) (UniProt P15735); experiment: Inhibition of PhKg2 (unknown origin) at 0.49 uM relative to control
[10] = target: Tyrosine-protein kinase Yes (Homo sapiens) (UniProt P07947); experiment: Inhibition of Yes (unknown origin) at 0.49 uM relative to control
[11] = test system: Epidermal growth factor receptor (Homo sapiens), P00533 [L858R,T790M]; experiment: Inhibition of EGFR T790M/L858R double mutant (unknown origin) at 0.49 uM relative to control
[12] = target: Dual specificity tyrosine-phosphorylation-regulated kinase 1B (Homo sapiens) (UniProt Q9Y463); experiment: Inhibition of DYRK1B (unknown origin) at 0.49 uM relative to control
[13] = target: Serine/threonine-protein kinase Sgk3 (Homo sapiens) (UniProt Q96BR1); experiment: Inhibition of SGK3 (unknown origin) at 0.49 uM relative to control
[14] = target: Aurora kinase B (Homo sapiens) (UniProt Q96GD4); experiment: Inhibition of AurB (unknown origin) at 0.49 uM relative to control
[15] = test system: Mitogen-activated protein kinase 14 (Homo sapiens), Q16539 [T106M]; experiment: Inhibition of SAPK2a T106M mutant (unknown origin) at 0.45 uM relative to control
[16] = target: Ribosomal protein S6 kinase alpha-5 (Homo sapiens) (UniProt O75582); experiment: Inhibition of MSK1 (unknown origin) at 0.45 uM relative to control
[17] = target: Ribosomal protein S6 kinase alpha-1 (Homo sapiens) (UniProt Q15418); experiment: Inhibition of RSK1 (unknown origin) at 0.45 uM relative to control
[18] = target: Protein kinase C beta (Homo sapiens) (UniProt P05771); experiment: Inhibition of PKC-beta2 (unknown origin) at 0.45 uM relative to control
[19] = target: Aurora kinase C (Homo sapiens) (UniProt Q9UQB9); experiment: Inhibition of AurC (unknown origin) at 0.45 uM relative to control
[20] = target: Casein kinase I isoform delta (Homo sapiens) (UniProt P48730); experiment: Inhibition of CK1-delta (unknown origin) at 0.45 uM relative to control
[21] = target: Ribosomal protein S6 kinase alpha-6 (Homo sapiens) (UniProt Q9UK32); experiment: Inhibition of RSK4 (unknown origin) at 0.45 uM relative to control
[22] = target: Tyrosine-protein kinase Mer (Homo sapiens) (UniProt Q12866); experiment: Inhibition of Mer (unknown origin) at 0.45 uM relative to control
[23] = test system: Tyrosine-protein kinase ABL1 (Homo sapiens), P00519 [E255K]; experiment: Inhibition of ABL1 E255K mutant (unknown origin) at 0.45 uM relative to control
[24] = target: T1, Serine/threonine-protein kinase D2 (Homo sapiens) (UniProt Q9BZL6); experiment: Inhibition of PKD2 (unknown origin) at 0.45 uM relative to control
T1 sequence (whole entry): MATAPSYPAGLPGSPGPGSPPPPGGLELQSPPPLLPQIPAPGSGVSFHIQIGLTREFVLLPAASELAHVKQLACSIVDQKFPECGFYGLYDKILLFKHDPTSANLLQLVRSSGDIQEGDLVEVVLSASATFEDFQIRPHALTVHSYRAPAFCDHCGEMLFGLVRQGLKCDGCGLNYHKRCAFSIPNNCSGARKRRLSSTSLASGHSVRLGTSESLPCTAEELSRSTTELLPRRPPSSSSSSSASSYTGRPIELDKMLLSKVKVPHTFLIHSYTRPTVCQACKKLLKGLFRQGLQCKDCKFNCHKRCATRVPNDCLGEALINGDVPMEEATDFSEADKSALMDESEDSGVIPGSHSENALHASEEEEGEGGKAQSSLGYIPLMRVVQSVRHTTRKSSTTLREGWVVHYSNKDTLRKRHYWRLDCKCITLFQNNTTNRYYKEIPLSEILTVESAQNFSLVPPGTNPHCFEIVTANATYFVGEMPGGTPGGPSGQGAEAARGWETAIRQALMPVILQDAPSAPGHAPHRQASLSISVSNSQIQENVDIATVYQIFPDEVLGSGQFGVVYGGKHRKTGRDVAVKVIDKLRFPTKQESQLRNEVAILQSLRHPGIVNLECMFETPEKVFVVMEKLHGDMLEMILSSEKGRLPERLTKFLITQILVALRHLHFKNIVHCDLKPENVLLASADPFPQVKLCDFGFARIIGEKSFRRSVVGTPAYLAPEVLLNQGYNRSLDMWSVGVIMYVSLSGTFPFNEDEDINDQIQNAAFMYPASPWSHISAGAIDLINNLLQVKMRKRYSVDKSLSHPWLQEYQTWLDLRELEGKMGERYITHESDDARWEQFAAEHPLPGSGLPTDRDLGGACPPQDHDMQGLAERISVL

[25] = target: Misshapen-like kinase 1 (Homo sapiens) (UniProt Q8N4C8); experiment: Inhibition of MINK (unknown origin) at 0.45 uM relative to control
[26] = target: CDK4/Cyclin D3 (Homo sapiens) (UniProt P11802+P30281); experiment: Inhibition of CDK4/CyclinD3 (unknown origin) at 0.45 uM relative to control; type: protein-complex assay
[27] = target: Tyrosine-protein kinase receptor UFO (Homo sapiens) (UniProt P30530); experiment: Inhibition of AXL (unknown origin) at 0.45 uM relative to control
[28] = target: Serine/threonine-protein kinase 25 (Homo sapiens) (UniProt O00506); experiment: Inhibition of YSK (unknown origin) at 0.45 uM relative to control

inhibition [1]: 2.7%
bioavailability [2]: 100%
Structure (SMILES): COC(=O)Nc1noc2cc(-c3c(-c4ccccn4)n[nH]c3C)ccc12

inhibition [3]: 4.7%
inhibition [4]: 5.7%
inhibition [5]: 11%
inhibition [6]: 1.3%
inhibition [7]: -2.3%
inhibition [8]: 1%
inhibition [9]: 0.3%
inhibition [10]: -8%
inhibition [11]: -1%
inhibition [12]: 2%
inhibition [13]: 1.3%
inhibition [14]: -6.3%
Structure (SMILES): Cc1[nH]nc(C2CC2)c1-c1ccc2c(NC(=O)C3CC3)noc2c1

inhibition [15]: 1.3%
inhibition [16]: 1.3%
inhibition [17]: 27.3%
inhibition [18]: 3.7%
inhibition [19]: -1%
inhibition [20]: 5%
inhibition [21]: 50.7%
inhibition [22]: 0.7%
inhibition [23]: 72.7%
inhibition [24]: 6.7%
inhibition [25]: 83.7%
inhibition [26]: -8.3%
inhibition [27]: 0.3%
inhibition [28]: 31%
Structure (SMILES): Cc1n[nH]c(C)c1-c1ccc2c(NC(=O)c3ccc(N4CCN(C)CC4)cc3)n[nH]c2c1
